How the values were obtained:
Assay type in all cases: cell-based, human
H292 cells [1] = assay: RT-qPCR of stemness transcription factors; conditions: H292, 6 h
Method: (§1) RNA extraction was performed on DH_32-treated cells (3 × 10^5 cells per well in 6-well plates) using GENEzol as the reagent. Total RNA was used to synthesize cDNA through the application of SuperScript III reverse transcriptase from Invitrogen. Following cDNA synthesis, 100 ng of the cDNA was utilized for RT-qPCR, employing Luna Universal qPCR Master Mix from NEB, UK, in a final volume of 20 µL. The reaction mixture was conducted using the CFX 96 real-time PCR system from Bio-Rad, located in Hercules, CA. For the RT-qPCR, the protocol included an initial denaturation step at 95 °C for 1 min, followed by 45 cycles involving denaturation at 95 °C for 10 s, annealing and extension at 60 °C for 30 s. Melting curve analysis was employed to assess the specificity of the primers. The targeted primer genes were: The gene expression levels were normalized using the GAPDH gene as an internal control. The relative mRNA gene expression level for each gene was determined based on the comparative Cq values. RT acted as the positive control for this experiment.

H23 cells [2] = assay: RT-qPCR of stemness transcription factors; conditions: H23, 6 h
Method: as §1

A549 cells [3] = assay: RT-qPCR of stemness transcription factors; conditions: A549, 50 nM, 6 h, normalized to GAPDH
Method: as §1

[4] = test system: β-catenin in A549, H23, and H292 cells; assay: Western blot of β-catenin; conditions: 0–100 nM, 24 h
Method: (§2) The protein expression levels in NSCLC cells were assessed through Western blot analysis. A549, H23, and H292 cells were seeded at a density of 4 × 10^5 cells per well in 6-well cell culture plates. These cells were subjected to treatments with DH_32 at concentrations of 0, 25, 50, and 100 nM for 24 h at 37 °C.
(§3) Following treatment, the cells were collected using cold PBS and incubated on ice with a lysis buffer. The lysis buffer contained 50 mM 4-(2-hydroxyethyl)-1-piperazineethanesulfonic acid (pH 7.5), 150 mM NaCl, 5 mM EDTA, 1% Triton X-100, 1 mM phenylmethylsufonyl fluoride, and 2 μg/mL pepstatin A (cat no: 9803, Cell Signaling), along with complete protease inhibitor cocktail tablets provided in EASYpack (Roche, cat no: 04693116001). The incubation occurred for 40 min on ice, followed by centrifugation at 12,000× g at 4 °C for 15 min. Cell lysates were collected, and the protein content was quantified using the bicinchoninic acid (BCA) protein kit from Thermo-Fisher Scientific, Rockford, IL, USA. […] A chemiluminescent substrate (Supersignal West Pico; Pierce, Rockford, IL, USA) was applied to detect complex reactivity, and the signal intensity was quantified through densitometry. Protein intensity was analyzed by using ImageJ software (Image J 1.52a, Rasband, W., National Institutes of Health, Bethesda, MD, USA). […]

[5] = test system: A549, H23, and H292 cells; assay: Western blot of CSC markers; conditions: 25, 50, and 100 nM, 24 h
Method: as §2, §3

[6] = test system: A549, H23, and H292 cells; assay: Immunofluorescence of stem cell markers and transcription factors; conditions: A549, H23, and H292, 50 nM, 24 h
Method: A549, H23, and H292 NSCLC cells were seeded at a concentration of 1 × 10^4 cells per well in 96-well plates. The cells were exposed to different concentrations of DH_32 (0, 25, 50, and 100 nM) for 24 h, after which the medium was removed. Following that, the cells were subjected to fixation with 4% paraformaldehyde for 15 min. The cells were permeabilization with 0.5% Triton-X for 5 min, followed by the blocking of non-specific proteins with 10% FBS in 0.1% Triton-X PBS for 1 h at room temperature. The cells were exposed to a 1:400 dilution of primary antibodies (CD133, CD44, ALDH1A1, OCT4, NANOG, SOX2, and β-catenin) and incubated at 4 °C overnight. On the subsequent day, the cells were treated with a 1:500 dilution of the following secondary antibodies: Alexa Fluor 594-conjugated goat anti-rabbit IgG (H+L) (Invitrogen) and Alexa Fluor 488-conjugated goat anti-mouse IgG (H+L) (Invitrogen). Simultaneously, the localization of nuclei was stained with Hoechst 33342 for 1 h at room temperature. The cells were rinsed with PBS and then covered with 50% glycerol. The images were captured by a fluorescence microscope (Olympus IX 51 with DP70; Olympus America Inc., Center valley, PA, USA). The fluorescence intensity was measured by Image J software. RT acted as the positive control for this experiment.

H292 cells [7] = assay: Western blot of apoptosis-related proteins (cleaved PARP, Bcl-2, Bax)
Method: as §2
(§4) Following treatment, the cells were collected using cold PBS and incubated on ice with a lysis buffer. The lysis buffer contained 50 mM 4-(2-hydroxyethyl)-1-piperazineethanesulfonic acid (pH 7.5), 150 mM NaCl, 5 mM EDTA, 1% Triton X-100, 1 mM phenylmethylsufonyl fluoride, and 2 μg/mL pepstatin A (cat no: 9803, Cell Signaling), along with complete protease inhibitor cocktail tablets provided in EASYpack (Roche, cat no: 04693116001). The incubation occurred for 40 min on ice, followed by centrifugation at 12,000× g at 4 °C for 15 min. Cell lysates were collected, and the protein content was quantified using the bicinchoninic acid (BCA) protein kit from Thermo-Fisher Scientific, Rockford, IL, USA. The sample was denatured by heating at 95 °C for 5 min with a sample buffer. The protein was loaded onto a 10% sodium dodecyl sulfate polyacrylamide gel electrophoresis (SDS-PAGE). Following gel separation, the proteins were transferred onto a nitrocellulose membrane with a pore size of 0.45 μm. The membranes were incubated with 5% nonfat dry milk in TBST (25 mm Tris-HCl, pH 7.4, 125 mm NaCl, and 0.05% Tween 20) for 1 h 30 min. Following this, the membrane was exposed to primary antibodies (Cell Signaling) including rabbit PARP, BcL2, Bax, CD133, CD44, OCT4, ALDH1A1, and β-catenin, and incubated at 4 °C overnight. Rabbit β-actin served as the control for loading normalization. The primary antibodies were diluted to 1:1000 in 5% w/v BSA in TBST. The membranes were washed with TBST and were then exposed to horseradish-peroxidase (HRP)-conjugated isotype-specific secondary antibodies, as well as anti-rabbit and anti-mouse IgG (1:2000 in 5% w/v skim milk in TBST), for 1 h at RT. Membranes were washed again with TBST. A chemiluminescent substrate (Supersignal West Pico; Pierce, Rockford, IL, USA) was applied to detect complex reactivity, and the signal intensity was quantified through densitometry. Protein intensity was analyzed by using ImageJ software (Image J 1.52a, Rasband, W., National Institutes of Health, Bethesda, MD, USA). RT acted as the positive control for this experiment.

H23 cells [8] = assay: as above
Method: as §2, §4

A549 cells [9] = assay: as above
Method: as §2, §4

Structure (SMILES): COC1=C(C)C(=O)C2=C(C1=O)[C@@H]1CN(Cc3ccc4ccccc4c3)[C@@H](C#N)[C@H](C2)N1C [DH_32, (1R,4R,5S)-9-methoxy-8,11-dimethyl-3-(naphthalen-2-ylmethyl)-7,10-dioxo-1,2,3,4,5,6,7,10-octahydro-1,5-epiminobenzo[d]azocine-4-carbonitrile]
- mRNA of OCT4, NANOG, and SOX2 (H292 cells [1]): significantly decreased
- mRNA of OCT4, NANOG, and SOX2 (H23 cells [2]): significantly decreased
- mRNA expression level of NANOG (A549 cells [3]): 0.4 fold
- mRNA expression level of OCT4 (A549 cells [3]): 0.5 fold
- mRNA expression level of SOX2 (A549 cells [3]): 0.3 fold
- β-catenin protein level by Western blot [4]: significant decrease in the β-catenin protein level
- CSC markers CD133, CD44, OCT4, and ALDH1A1 by western blot [5]: dramatic decrease
- fluorescence signals of stem cell markers CD133, CD44, and ALDH1A1 [6]: approximately 0.5 fold
- fluorescence signals of stem cell transcription factors OCT4, NANOG, and SOX2 [6]: approximately 0.5 fold
- anti-apoptotic Bcl-2 protein level (H292 cells [7]; H292, 0–100 nM, 24 h): significant reduction in a dose-dependent manner
- cleaved PARP level (H292 cells [7]; H292, 50 nM, 24 h): substantial increase
- pro-apoptotic protein Bax level (H292 cells [7]; H292, 24 h): remained unaltered
- anti-apoptotic Bcl-2 protein level (H23 cells [8]; H23, 0–100 nM, 24 h): significant reduction in a dose-dependent manner
- cleaved PARP level (H23 cells [8]; H23, 50 nM, 24 h): substantial increase
- pro-apoptotic protein Bax level (H23 cells [8]; H23, 24 h): remained unaltered
- anti-apoptotic Bcl-2 protein level (A549 cells [9]; A549, 0–100 nM, 24 h): significant reduction in a dose-dependent manner
- cleaved PARP level (A549 cells [9]; A549, 50 nM, 24 h, compared to the RT treatment): six-fold increase
- pro-apoptotic protein Bax level (A549 cells [9]; A549, 24 h, compared to the parent compound): two-fold increase

From publication PMC10744608, “Simplified Synthesis of Renieramycin T Derivatives to Target Cancer Stem Cells via β-Catenin Proteasomal Degradation in Human Lung Cancer” (Marine Drugs, 2023)
